Results reported in publication PMC8746632, “Design and Synthesis of New Thiophene/Thieno[2,3-d]pyrimidines along with Their Cytotoxic Biological Evaluation as Tyrosine Kinase Inhibitors in Addition to Their Apoptotic and Autophagic Induction” (Molecules, 2021).

molecular target: T1, FLT3 kinase (Fms-like tyrosine kinase 3) (Homo sapiens, UniProt P36888); assay: FLT3 Kinase Assay Kit, ADP production, luminescence, dose response; assay type: biochemical
T1 sequence (P36888 27-993): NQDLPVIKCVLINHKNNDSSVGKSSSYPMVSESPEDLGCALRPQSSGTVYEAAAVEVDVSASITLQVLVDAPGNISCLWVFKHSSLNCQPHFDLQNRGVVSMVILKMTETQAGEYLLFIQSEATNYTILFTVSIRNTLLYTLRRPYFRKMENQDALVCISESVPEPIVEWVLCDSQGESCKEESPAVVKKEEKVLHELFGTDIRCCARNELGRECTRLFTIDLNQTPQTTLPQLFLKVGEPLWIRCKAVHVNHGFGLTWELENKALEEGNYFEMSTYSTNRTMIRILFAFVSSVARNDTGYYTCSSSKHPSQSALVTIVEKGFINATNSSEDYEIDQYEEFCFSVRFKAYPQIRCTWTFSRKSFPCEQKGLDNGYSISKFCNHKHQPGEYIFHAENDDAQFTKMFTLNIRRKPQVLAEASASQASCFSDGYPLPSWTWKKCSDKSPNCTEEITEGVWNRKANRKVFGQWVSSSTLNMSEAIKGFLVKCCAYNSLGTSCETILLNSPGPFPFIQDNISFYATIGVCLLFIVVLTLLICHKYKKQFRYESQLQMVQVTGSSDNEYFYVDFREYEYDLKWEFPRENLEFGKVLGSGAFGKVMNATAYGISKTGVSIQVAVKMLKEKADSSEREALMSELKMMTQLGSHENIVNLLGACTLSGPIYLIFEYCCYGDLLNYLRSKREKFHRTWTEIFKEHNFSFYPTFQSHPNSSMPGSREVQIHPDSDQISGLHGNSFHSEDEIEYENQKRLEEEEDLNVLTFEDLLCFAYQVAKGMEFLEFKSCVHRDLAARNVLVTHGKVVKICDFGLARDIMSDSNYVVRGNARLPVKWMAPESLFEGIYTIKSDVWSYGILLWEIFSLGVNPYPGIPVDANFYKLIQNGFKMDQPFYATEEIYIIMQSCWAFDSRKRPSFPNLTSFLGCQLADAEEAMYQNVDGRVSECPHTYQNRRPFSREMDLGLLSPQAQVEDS

Row | Compound | IC50
1 | CCOC(=O)c1c(NC(=O)CCl)sc2c1CCCC2 [compound 10, 10] | 40 ± 5.5 µM
2 | CC1=CC(=O)N(Nc2ncnc3sc4c(c23)CCCC4)C1=O [compound 8, 3-Methyl-1-(5,6,7,8-tetrahydrobenzo[4,5]thieno[2,3-d]pyrimidin-4-ylamino)-1H-pyrrole-2,5-dione] | 40.5 ± 6.3 µM
3 | CC(C)(C)c1cc(Nc2ncnc3sc4c(c23)CCCC4)on1 [9b, N-(3-tert-butylisoxazol-5-yl)-5,6,7,8-tetrahydrobenzo[4,5]thieno[2,3-d]pyrimidin-4-amine] | 39.6 ± 4.6 µM
4 | O=C(CCl)NNc1ncnc2sc3c(c12)CCCC3 [compound 5, 2-Chloro-N′-(5,6,7,8,tetrahydrobenzo[4,5]thieno[2,3-d]pyrimidin-4-yl)acetohydrazide] | 32.4 ± 5.5 µM
